{
  "source": "paper PMC12308805",
  "about": "“Ultrahigh-Throughput Virtual Screening Strategies against PPI Targets: A Case Study of STAT Inhibitors” (Journal of Chemical Information and Modeling, 2025)",
  "origin": "cited, not measured here",
  "note": "Square brackets hold non-standard residues; d marks the D form. Peptide text beside a SMILES is read from it. pY = N[C@@H](Cc1ccc(OP(=O)(O)O)cc1)C(=O)O; Nle = CCCC[C@H](N)C(=O)O",
  "data": [
    {"test_system": "STAT3", "conditions": "cited from earlier work", "values": [
      {"compound": "CC(C)C[C@H](NC(=O)/C=C/c1ccc(OP(=O)(O)O)cc1)C(=O)N1CCC[C@H]1C(=O)NCCCC(N)=O", "note": "[CHEMBL573048]", "Type (known STAT3 active)": "Active"}
    ]},
    {"test_system": "STAT3", "conditions": "sheet 6QHD_actives_decoys, retrospective screening set for STAT3 SH2 domain (PDB 6QHD); decoys are presumed inactives, not tested; ref DUD-E; cited from earlier work", "values": [
      {"compound": "COc1cc([C@H]2c3cc(OC)c(O[C@H]4O[C@@H](CO)[C@@H](O)[C@@H](O)[C@H]4O)c(OC)c3C[C@H](CO)[C@@H]2CO)cc(OC)c1O", "note": "[Decoy824]", "Type": "Inactive (Decoy)"},
      {"compound": "COc1ccc(CCNc2ccc3nnc(CCNS(=O)(=O)c4ccccc4OC)n3n2)cc1OC", "note": "[Decoy899]", "Type": "Inactive (Decoy)"},
      {"compound": "CCOC(=O)C1=C(C)N(CCOC)C(=O)/C1=C\\c1ccc(CNC(=O)C(=O)Nc2ccc(C(=O)OCC)cc2)o1", "note": "[Decoy951]", "Type": "Inactive (Decoy)"},
      {"compound": "C[n+]1c(N[N-]S(=O)(=O)c2cccc(C(=O)NC(C)(C)CC(C)(C)CC(C)(C)C)c2)sc2ccc(S(=O)(=O)C(F)F)cc21", "note": "[Decoy889]", "Type": "Inactive (Decoy)"},
      {"compound": "CCOc1cc([C@@H]2C(C(=O)c3ccc4c(c3)OCCO4)=C(O)C(=O)N2CCCN2CCOCC2)ccc1O", "note": "[Decoy848]", "Type": "Inactive (Decoy)"},
      {"compound": "Cc1cc(NC(=O)CSc2nncn2C)ccc1-c1ccc(NC(=O)CSc2nncn2C)cc1C", "note": "[Decoy777]", "Type": "Inactive (Decoy)"},
      {"compound": "COc1cc(/C=N/NC(=O)CSc2nnc(-c3cccc([N+](=O)[O-])c3)n2N)c([N+](=O)[O-])cc1O", "note": "[Decoy787]", "Type": "Inactive (Decoy)"},
      {"compound": "CC[C@H]1OC(=O)[C@@H](C)[C@@H](O[C@@H]2C[C@@](C)(OC)[C@H](O)[C@H](C)O2)[C@@H](C)[C@@H](O[C@H]2O[C@@H](C)C[C@@H](N(C)C)[C@H]2O)[C@](C)(OC)C[C@@H](C)C(=O)[C@@H](C)[C@@H](O)[C@]1(C)O", "note": "[Decoy775]", "Type": "Inactive (Decoy)"}
    ]},
    {"test_system": "STAT3", "conditions": "sheet 6QHD_actives_decoys; known STAT3 actives of the retrospective screening set; ref ChEMBL / literature; cited from earlier work", "values": [
      {"compound": "CCCC[C@H](NC(=O)[C@H](Cc1ccc(OP(=O)(O)O)cc1)NC(C)=O)C(=O)N1CCC[C@H]1C(=O)N[C@@H](CCC(N)=O)C(=O)N[C@H](C(N)=O)[C@@H](C)O", "note": "[CHEMBL197513] (Ac-[pY][Nle]PQT-NH2)", "Type (known STAT3 active)": "Active"}
    ]},
    {"test_system": "STAT3", "conditions": "sheet 6QHD_actives_decoys; retrospective screening set for STAT3 SH2 domain (PDB 6QHD); decoys generated with DUD-E and presumed inactive, not tested; ref DUD-E; cited from earlier work", "values": [
      {"compound": "CC1=C(/C(O)=N/c2ccc(S(N)(=O)=O)cc2)[C@@H](c2ccco2)C(C#N)=C(SCC(=O)Nc2ccc(F)cc2)N1", "note": "[Decoy544]", "Type": "Inactive (Decoy)"},
      {"compound": "CCOC(=O)c1ccc(/N=C2\\S[C@H](CC(=O)Nc3ccc(C(=O)OCC)cc3)C(=O)N2CCc2ccc(Cl)cc2)cc1", "note": "[Decoy553]", "Type": "Inactive (Decoy)"},
      {"compound": "CCOc1cc(/C=N/NC(=O)c2nnn(-c3nonc3N)c2CSC2=NCCS2)cc(Br)c1OCc1cccc(C)c1", "note": "[Decoy594]", "Type": "Inactive (Decoy)"},
      {"compound": "Cc1cccn2c(=O)c(/C=C3\\SC(=S)N(CCCCCC(=O)O)C3=O)c(NCCCn3ccnc3)nc12", "note": "[Decoy451]", "Type": "Inactive (Decoy)"},
      {"compound": "COc1cc([C@@H]2OC[C@@]3(O)[C@@H](c4ccc(O[C@@H]5O[C@H](CO)[C@@H](O)[C@H](O)[C@H]5O)c(OC)c4)OC[C@@]23O)ccc1O", "note": "[Decoy396]", "Type": "Inactive (Decoy)"},
      {"compound": "CCC/C=C/[C@@H](C(=O)NCS(=O)(=O)c1ccc(C)cc1)N(CCC)C(=O)c1cc([N+](=O)[O-])ccc1O", "note": "[Decoy570]", "Type": "Inactive (Decoy)"},
      {"compound": "CC(=O)N[C@H]1[C@H]([C@H](O)[C@H](O)CO)O[C@@](O[C@H]2[C@@H](O)[C@@H](CO)O[C@@H](O[C@@H]([C@H](O)[C@@H](O)C=O)[C@H](O)CO)[C@@H]2O)(C(=O)O)C[C@@H]1O", "note": "[Decoy664]", "Type": "Inactive (Decoy)"},
      {"compound": "Cc1nnc(SCC2=C(C(=O)NCC(C)C)N3C(=O)[C@H](NC(=O)c4nn(C)c(C)c4Br)[C@H]3SC2)s1", "note": "[Decoy523]", "Type": "Inactive (Decoy)"},
      {"compound": "CCCNC(=O)CN(C)C(=O)c1ccc(N2CCNCC2)c(NS(=O)(=O)c2ccc(CCC)cc2)c1", "note": "[Decoy450]", "Type": "Inactive (Decoy)"},
      {"compound": "CC[C@@H](C)[C@@H](NC(=O)CNC(=O)CCc1c(C)c2cc3c(C)coc3c(C)c2oc1=O)C(=O)O", "note": "[Decoy649]", "Type": "Inactive (Decoy)"},
      {"compound": "COCCCNC(=O)C(=O)N/N=C/c1cc(I)c(OCC(=O)Nc2cccc(C(F)(F)F)c2)c(OC)c1", "note": "[Decoy573]", "Type": "Inactive (Decoy)"},
      {"compound": "CC(=O)N[C@H]1[C@H](O[C@H]2[C@H](O[C@H](C)C(=O)O)[C@@H](NC(C)=O)[C@@H](OC(C)=O)O[C@@H]2COC(C)=O)O[C@H](COC(C)=O)[C@@H](OC(C)=O)[C@@H]1OC(C)=O", "note": "[Decoy458]", "Type": "Inactive (Decoy)"}
    ]}
  ]
}
